Assay results from patent publication US20180215710A1, “METHODS FOR INHIBITING NATIVE AND PROMISCUOUS UPTAKE OF MONOAMINE NEUROTRANSMITTERS” (priority 2011, published 2018).
“Also recorded” adds a separate entry of the source.

Experiments:
[1] = tested on: extracellular norepinephrine and dopamine in prefrontal cortex; settings: Bymaster et al. 2002a; cited from earlier work
[2] = tested on: patients with Major Depressive Disorder; experiment: Phase 2 six week double-blind placebo-controlled study in patients with Major Depressive Disorder; format: in vivo, human; settings: for CGI-I in comparison to placebo (in words): MITT n=56, MMRM
From the text: Subjects were identified who were between the ages of 18-65 (inclusive), and met criteria for Major Depressive Disorder in accordance with the Diagnostic and Statistical manual of Mental Disorders-IV-TR and confirmed by the MINI International Neuropsychiatric Interview. […] They were also required to have a BMI≤35 and body weight>45 kg at the Screening Visit. […] Subjects were required to refrain from taking antidepressants, anticonvulsants including gabapentin and pregabalin, neuroleptics, MAO inhibitors, barbiturates, benzodiazepines, stimulants, antipsychotics, lithium, anxiolytics and beta blockers starting two weeks prior to the study and continuing until after the follow-up visit. Subjects were evaluated for safety parameters prior to and throughout the trial by a variety of measures including electrocardiogram, physical examination, vital signs and body weight, and clinical laboratory testing including a lipid panel, CBC with differential and urinalysis. […] Efficacy was determined by measuring the change from baseline in the Montgomery-Åsberg Depression Rating Scale (MADRS), the HAMD-17, the Clinical Global Impression Global Improvement Scale (CGI-1), the Clinical Global Impression-Severity scale (CGI-S) and the Derogatis Interview for Sexual Functioning Self-Report (DISF-SR). […] Comparisons between treatment groups based on MADRS (the primary efficacy parameter), […] and CGI-S scores were analyzed using a mixed-repeated measures (MMRM) analysis model including factors for Subject, Visit, Treatment Arm and Baseline value as a covariate. Adjusted least-squares means from these models are presented. Comparisons between groups were made at each post-baseline visit using model-based contrasts and adjusted degrees of freedom. For these analyses no explicit data imputations were made prior to the analysis. Response and remission categorical data were analyzed using chi-square tests. Inferential analyses of safety data were conducted with ANOVA models or chi-square tests. Two-tail alpha was set to 0.05. All analyses were conducted using SAS version 9.2.

[3] = target: T1, serotonin transporters (SERT) (Homo sapiens, UniProt P31645); experiment: Brain SERT occupancy by PET with [11C]DASB tracer, Phase 1 single-dose study; format: in vivo; settings: N = 3
T1 construct: from tissue; host or cells: living human brain (3 healthy adult male volunteers), PET with [11C]DASB
From the text: This study was a Phase 1, single-dose, randomized, open-label study using positron emission tomography (PET) and [^11C]DASB ([^11C]N,N-dimethyl-2-(2-amino-4-cyanophenylthio) benzylamine) as a PET tracer in 3 healthy, young, adult male volunteer subjects. Using PET imaging, uptake inhibitor effects may be measured based on the proportion of SERT sites blocked in the brain.
(§1) PET scans were done at baseline and at 2 and 7-hour post-dose via measurement of [^11C]DASB tracer binding. Periodic blood samples were collected for evaluation of (+)-1-(3,4-dichlorophenyl)-3-azabicyclo[3.1.0]hexane PK. Safety was monitored by clinical and laboratory evaluations, including vital signs, physical examination, clinical chemistry, hematology, urinalysis, and ECG.

[4] = Plasma concentration in Phase 1 single-dose PET study; format: in vivo, human; settings: ~7 h after single oral dose of 150 mg, N = 3
From the text: as §1

[5] = Safety monitoring in Phase 1 single-dose PET study; format: in vivo, human; settings: single oral dose of 150 mg
From the text: as §1

[6] = 100 mg, Visit 8, LOCF, Completers, 50% reduction or more of baseline total score
[7] = six week double-blind, MITT n=56, MMRM LS means
[8] = ~2 h after single oral dose of 150 mg
[9] = ~7 h after single oral dose of 150 mg

T1 sequence (P31645 whole entry): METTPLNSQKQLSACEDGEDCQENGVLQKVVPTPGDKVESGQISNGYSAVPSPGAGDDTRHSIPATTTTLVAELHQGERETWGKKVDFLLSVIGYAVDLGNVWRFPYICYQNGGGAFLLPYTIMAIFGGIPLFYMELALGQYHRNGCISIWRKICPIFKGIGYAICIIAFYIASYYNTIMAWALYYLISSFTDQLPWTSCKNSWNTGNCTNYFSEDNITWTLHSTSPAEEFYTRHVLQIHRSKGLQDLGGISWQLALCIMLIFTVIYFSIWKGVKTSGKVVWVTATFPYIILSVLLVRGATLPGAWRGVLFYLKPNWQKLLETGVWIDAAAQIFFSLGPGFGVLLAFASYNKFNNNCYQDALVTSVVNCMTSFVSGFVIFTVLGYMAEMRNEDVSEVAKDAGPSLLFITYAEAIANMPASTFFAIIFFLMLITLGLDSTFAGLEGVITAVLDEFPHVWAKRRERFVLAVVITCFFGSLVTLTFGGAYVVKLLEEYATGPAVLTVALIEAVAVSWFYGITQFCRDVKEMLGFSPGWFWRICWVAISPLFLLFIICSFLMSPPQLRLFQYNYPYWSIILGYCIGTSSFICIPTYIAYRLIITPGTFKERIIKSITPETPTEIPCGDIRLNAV

CNCC[C@@H](Oc1ccccc1C)c1ccccc1 [atomoxetine]
extracellular norepinephrine and dopamine concentrations in prefrontal cortex [1]: increased extracellular norepinephrine and dopamine concentrations

Clc1ccc(C23CNCC2C3)cc1Cl (single isomer, unassigned; (+)) [(+)-1-(3,4-dichlorophenyl)-3-azabicyclo[3.1.0]hexane]
tolerability ([2]; 50 mg/day then 100 mg/day): relatively well tolerated | remission rates by CGI-S score of ≤2 compared to placebo (in words) ([2]; 100 mg, LOCF): significantly greater remission rates | Response rate HAMD-17 [2, 6]: (11/20) 55.00% | Response rate MADRS [2, 6]: (8/20) 40.00% | Remission rate CGI-S ([2]; 100 mg, Visit 8, LOCF, Completers, CGI-S ≤ 2): (7/20) 35.00% | Remission rate HAMD-17 ([2]; 100 mg, Visit 8, LOCF, Completers, HAMD-17 ≤ 7): (4/20) 20.00% | Remission rate MADRS ([2]; 100 mg, Visit 8, LOCF, Completers, MADRS ≤ 12): (6/20) 30.00% | anhedonia factor score of the MADRS compared to placebo (in words) ([2]; MITT n=56, MMRM LS means, listed as EB-1010): statistically significant improvement | Anhedonia factor difference placebo vs drug ([2]; Visit 8, MMRM, MITT): 1.41 | CGI-I difference placebo vs drug ([2]; Visit 8, MMRM, MITT): 0.62 | CGI-S difference placebo vs drug ([2]; Visit 8, MMRM, MITT): 0.22 | HAMD-17 difference placebo vs drug ([2]; Visit 8, MMRM, MITT): 3.12 | MADRS difference placebo vs drug ([2]; Visit 8, MMRM, MITT): 3.83 | Anhedonia factor (LS Mean − SE) ([2]; Visit 8, MMRM, MITT, n = 30): 7.92 (0.50) | CGI-I (LS Mean − SE) ([2]; Visit 8, MMRM, MITT, n = 30): 2.13 (0.20) | CGI-S (LS Mean − SE) ([2]; Visit 8, MMRM, MITT, n = 30): 3.31 (0.15) | HAMD-17 (LS Mean − SE) ([2]; Visit 8, MMRM, MITT, n = 30): 14.90 (1.40) | overall statistical effect size (Cohen's d), MADRS total score ([2]; Week 6, vs placebo): −0.63 | discontinuation due to AEs ([2]; compared with placebo): Two patients in each treatment group discontinued the study early due to AEs | heart rate, systolic or diastolic blood pressure compared to placebo ([2]; human, in vivo): did not result in significant increases | serious AEs ([2]; human, in vivo): no serious AEs were reported | weight gain ([2]; human, in vivo): not associated with significant weight gain | percentage of patients who reported an adverse treatment event ([2]; placebo 39.28%): 30.30% | CGI-I in comparison to placebo (in words) ([2]; six week double-blind): statistically significantly superior to placebo | CGI-S in comparison to placebo (in words) [2, 7]: improvement | HAM-D in comparison to placebo (in words) [2, 7]: decrease | MADRS total score in comparison to placebo (in words) [2, 7]: statistically significantly superior | MADRS total score in comparison to placebo (in words) ([2]; six week double-blind, MITT n=56, MMRM LS means, listed as EB-1010): decrease | CGI-I in comparison to placebo (in words) ([2]; six week double-blind, listed as EB-1010): decrease | efficacy in treating depression (in words) ([2]; titrated dose of 50 mg/day then 100 mg/day): effective for treatment of patients with MDD; also recorded: efficacious in treating depression | Mean SERT Occupancy, Mean [3, 8]: approximately 48% | Mean SERT Occupancy, Striatum [3, 8]: 48% | Mean SERT Occupancy, Thalamus [3, 8]: 48% | Mean SERT Occupancy, Striatum [3, 9]: 32% | Mean SERT Occupancy, Thalamus [3, 9]: 33% | Mean Plasma Concentration [4]: ~0.405 µg/mL | discontinuation due to a clinical or laboratory adverse experience [5]: no subjects were discontinued | laboratory safety tests [5]: no clinically meaningful changes | physical examinations and ECGs [5]: no clinically meaningful changes from pre-dose evaluations | vital sign measurements (blood pressure, pulse rate, respiratory rate, oral temperature) [5]: No dose-related changes | serious adverse events ([5]; 3 healthy male subjects): No serious adverse events were reported | total adverse events reported by one subject ([5]; rated definitely not related to study drug): 5
